What all share (test): growth of human tumour cells (NCI), 48 h
For assay [1], the system named is MALME-3M melanoma.
Assay [2] concerns UO-31 renal.
Assay [3] has as its system UACC-62 melanoma.
The test system of assay [4] is SK-OV-3 ovarian.
Assay [5] concerns COLO 205 colon.
Assay [6] deals with EKVX NSCLC.
Assay [7] deals with MOLT-4 leukemia.
Assay [8] deals with A549 NSCLC.

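Method: 48-hour compound exposure of cells in 96-well plates, five concentrations, linear interpolation of endpoints. The concentration for 50% growth inhibition is given as GI50. TGI is the concentration that stops growth completely.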

Turning to `O=C1CCC(=O)N2CCCCN12`, the TGI in assay [1], in assay [2], in assay [3], in assay [4], in assay [5] and in assay [6] was more than 100 µM each time. Also, the TGI in assay [7] and in assay [8] was more than 100 µM throughout.
For the compound `NC(=O)C(=O)N/N=C(\CC1(O)C(=O)Nc2ccccc21)c1ccc2ccccc2c1` (configuration not stated), the TGI in assay [1] is more than 100 µM; in assay [2] it was more than 100 µM; in assay [3], 77.9 µM; in assay [4] it was more than 100 µM; in assay [5], 41.1 µM; in assay [6], more than 100 µM. The results for the TGI in assay [7] and in assay [8] were 53.5 µM and 43.9 µM, respectively.
Consider `Cc1cccc(C)c1NC(=O)C(=O)C1C(=O)NC(=O)NC1=O`, for which the TGI in assay [1], in assay [2], in assay [3], in assay [4], in assay [5] and in assay [6] was more than 100 µM throughout. For the same compound, the TGI in assay [7] and in assay [8] was more than 100 µM in each case.
For `O=C1O[C@@H](c2ccc3c(c2)OCO3)C2C(=O)O[C@@H](c3ccc4c(c3)OCO4)C12` (some centres not stated), the TGI in assay [2], in assay [3], in assay [4], in assay [5], in assay [6] and in assay [7] was more than 100 µM throughout. Further, the TGI in assay [8] was more than 100 µM.
Regarding `OCC(O)CC[CH2][Sn]([Br])([c]1ccccc1)[c]1ccccc1` (configuration not stated), the GI50 in assay [2] is more than 100 µM; in assay [3], 65.8 µM; in assay [4], more than 100 µM; in assay [5], more than 100 µM; in assay [6] it was more than 100 µM; in assay [8] it was more than 100 µM. The TGI in assay [2], in assay [3], in assay [4], in assay [5], in assay [6] and in assay [8] was more than 100 µM throughout.
With `COC(=O)c1c/c(=N\NC(=O)CC(=O)Nc2ccccc2OC)c2ccccc2o1`, the TGI in assay [2], in assay [3], in assay [4], in assay [5], in assay [6] and in assay [7] was more than 100 µM throughout. In assay [8], this compound showed a TGI of more than 100 µM.
Consider `CCCCN=C(NC#N)NCCCC`, for which the TGI is more than 100 µM in assay [1]; more than 100 µM in assay [2]; more than 100 µM in assay [3]; more than 100 µM in assay [4]; 98.9 µM in assay [5]; more than 100 µM in assay [6]. Further, the TGI in assay [7] and in assay [8] was more than 100 µM each time.
As to `CCOC(=O)[C]1([Bi]([CH3])[CH3])N=NC(C(=O)OC)=C1C(=O)OC` (configuration not stated), the GI50 in assay [1] was 17 µM; in assay [2], 20.3 µM; in assay [3], 19.5 µM; in assay [4], more than 100 µM; in assay [5] it was 19.8 µM; in assay [6], 18.7 µM. The results for the GI50 in assay [7] and in assay [8] were 23.3 µM and more than 10 µM, respectively. For the same compound, the TGI is 31.8 µM in assay [1]; 34.5 µM in assay [2]; 34.4 µM in assay [3]; more than 100 µM in assay [4]; 35.9 µM in assay [5]; 36.5 µM in assay [6]. The TGI in assay [7] is 63.9 µM; in assay [8], more than 10 µM.
For `C/C(CC(=O)Nc1cc(Cl)c(Cl)cc1Cl)=N\NC(N)=O`, the TGI in assay [1], in assay [2], in assay [3], in assay [4], in assay [5] and in assay [6] was more than 100 µM each time. For the same compound, the TGI in assay [7] and in assay [8] was more than 100 µM in each case.
In the case of `O=C(/C=C/c1c(O)ccc2ccccc12)c1cccc(O)c1`, the TGI was more than 100 µM in assay [1]; more than 100 µM in assay [2]; 69.1 µM in assay [3]; more than 100 µM in assay [4]; more than 100 µM in assay [5]; more than 100 µM in assay [6]. Besides, the TGI in assay [7] and in assay [8] was more than 100 µM throughout.
Take `COC(=O)/C=C/c1cc(OC)c(OC)c(OC)c1`: the TGI in assay [1], in assay [2], in assay [3], in assay [4], in assay [5] and in assay [6] was more than 100 µM in each case. The TGI in assay [7] and in assay [8] was more than 100 µM each time.
Turning to `CCC[CH2][Sn]([CH2]CCC)([O]C(=O)c1cccnc1SC)[O]C(=O)c1cccnc1SC`, the GI50 in assay [1] is 0.295 µM; in assay [2], 1.36 µM; in assay [3], 0.791 µM; in assay [4], 2.36 µM; in assay [5] it was 1.09 µM; in assay [6], 1.04 µM. Besides, the GI50 is 0.149 µM in assay [7] and 6.7 µM in assay [8]. In addition, the TGI in assay [1] turned out to be 1.49 µM; in assay [2] it was 2.66 µM; in assay [3], 2.04 µM; in assay [4] it was 5.83 µM; in assay [5] it was 2.33 µM; in assay [6], 2.22 µM. In addition, the TGI in assay [7] was found to be 0.929 µM; in assay [8], 20.6 µM.
Turning to `O=C1CCC2(c3ccc(F)cc3)Nc3cc(Cl)ccc3N12` (configuration not stated), the TGI in assay [1], in assay [2], in assay [3], in assay [4], in assay [5] and in assay [6] was more than 100 µM each time. For the same compound, the TGI in assay [7] and in assay [8] was more than 100 µM throughout.
`Cc1cc2c(cc1C)[n+](=O)c(C(=O)C/C(=N/NC(=O)CC#N)C(=O)Nc1ccccc1C(F)(F)F)c(C)n2[O-]`: the TGI in assay [1], in assay [3], in assay [4], in assay [5], in assay [6] and in assay [7] was more than 100 µM in each case. For the same compound, the TGI in assay [8] is more than 100 µM.
On to `O=C1/C(=C/c2ccccc2)CNC/C1=C\c1ccccc1`, for which the TGI in assay [1] was determined as 9.3 µM; in assay [2] it was 3.87 µM; in assay [3], 3.69 µM; in assay [4], 6.36 µM; in assay [5] it was 3.11 µM; in assay [6], 16.5 µM. The TGI in assay [7] was 3.36 µM; in assay [8] it was 7.63 µM.

Values taken from PubChem BioAssay (NCI).
